Tests used:
[1] = target: T1, Xanthine dehydrogenase/oxidase (Bos taurus, UniProt P80457); assay: Inhibition of bovine xanthine oxidase using hypoxanthine as a substrate
[2] = target: T1, Xanthine dehydrogenase/oxidase; assay: Inhibition of bovine xanthine oxidase using xanthine as a substrate
[3] = target: T1, Xanthine dehydrogenase/oxidase; conditions: cattle
[4] = Inhibition of horse liver recombinant thymidine phosphorylase; set-up: species or system Equus caballus

T1 sequence (P80457 whole entry): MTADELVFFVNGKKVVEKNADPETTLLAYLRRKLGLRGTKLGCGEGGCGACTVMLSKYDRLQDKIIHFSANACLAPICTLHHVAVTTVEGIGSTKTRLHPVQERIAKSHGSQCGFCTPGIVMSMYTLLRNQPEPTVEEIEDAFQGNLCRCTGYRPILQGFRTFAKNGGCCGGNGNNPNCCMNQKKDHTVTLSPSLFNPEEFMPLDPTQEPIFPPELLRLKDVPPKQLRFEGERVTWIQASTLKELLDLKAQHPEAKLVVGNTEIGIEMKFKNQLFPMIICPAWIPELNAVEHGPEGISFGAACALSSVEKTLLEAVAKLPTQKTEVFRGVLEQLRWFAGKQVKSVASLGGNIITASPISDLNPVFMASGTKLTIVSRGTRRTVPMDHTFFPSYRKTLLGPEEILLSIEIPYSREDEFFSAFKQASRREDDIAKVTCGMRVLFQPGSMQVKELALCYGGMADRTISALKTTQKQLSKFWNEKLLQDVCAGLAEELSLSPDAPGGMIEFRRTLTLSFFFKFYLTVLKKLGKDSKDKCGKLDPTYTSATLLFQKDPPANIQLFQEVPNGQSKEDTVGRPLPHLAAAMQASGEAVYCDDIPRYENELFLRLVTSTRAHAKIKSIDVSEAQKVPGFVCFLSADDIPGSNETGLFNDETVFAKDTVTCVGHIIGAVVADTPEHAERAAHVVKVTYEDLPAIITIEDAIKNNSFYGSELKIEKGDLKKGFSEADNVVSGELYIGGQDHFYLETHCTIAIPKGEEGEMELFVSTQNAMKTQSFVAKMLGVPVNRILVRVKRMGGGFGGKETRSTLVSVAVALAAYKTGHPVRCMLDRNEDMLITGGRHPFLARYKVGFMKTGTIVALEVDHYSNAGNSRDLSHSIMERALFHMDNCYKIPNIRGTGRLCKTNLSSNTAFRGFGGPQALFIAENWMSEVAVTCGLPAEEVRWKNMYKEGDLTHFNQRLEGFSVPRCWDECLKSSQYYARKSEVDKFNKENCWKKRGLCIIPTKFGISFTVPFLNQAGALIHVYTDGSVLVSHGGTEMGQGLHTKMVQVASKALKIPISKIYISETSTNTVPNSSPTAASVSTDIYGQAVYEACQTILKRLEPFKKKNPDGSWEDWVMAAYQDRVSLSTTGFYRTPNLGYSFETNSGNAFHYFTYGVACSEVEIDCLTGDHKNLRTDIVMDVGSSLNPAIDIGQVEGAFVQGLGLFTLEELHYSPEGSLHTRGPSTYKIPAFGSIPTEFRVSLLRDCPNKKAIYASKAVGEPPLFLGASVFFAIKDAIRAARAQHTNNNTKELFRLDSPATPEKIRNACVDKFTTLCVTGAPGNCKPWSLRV

| SMILES | Km [3] | other results |
| --- | --- | --- |
| O=c1[nH]c(=O)c2cc[nH]c2[nH]1 [7-DEAZAXANTHINE] |  | Ki [1]: 25 µM; Ki [2]: 70 µM |
| N=C1CCCN1Cc1nc[nH]c(=O)c1Cl | 64.9 µM |  |
| Nc1ncncc1Br | 44.4 µM |  |
| O=c1ncc2cc[nH]c2[nH]1 | 29.8 µM |  |
| O=c1[nH]cnc2[nH]ccc12 | 45.1 µM |  |
| Nc1[nH]c(=O)ncc1Br | 32.5 µM |  |
| Nc1nc[nH]c(=O)c1Br | 23.8 µM |  |
| Nc1[nH]c(=O)[nH]c(=O)c1Br |  | IC50 [4]: 30 µM |

From ChEMBL document CHEMBL1156686, “Xanthine oxidase-activated prodrugs of thymidine phosphorylase inhibitors” (Eur J Med Chem, 2008)
